Experimental data published in publication PMC9381674 (Cardiology and Therapy, 2022).
Read-outs that look alike come from different tables or passages of the source.

How the values were obtained:
[1] = compared to intravenous administration; extensive first-pass effect; cited from earlier work
CYP3A4/5 [2] = conditions: strong index inhibitor of CYP3A4/5; cited from earlier work
P-gp = conditions: inhibitor for P-gp; cited from earlier work
[3] = assay type: in vivo, human
Safety assessments = assay type: in vivo, human; conditions: single dose of milvexian alone and in combination with itraconazole or diltiazem
CYP3A4/5 [4] = conditions: preclinical results; ref unpublished data; cited from earlier work
[5] = system: arterial and venous thrombosis; conditions: preclinical models of arterial and venous thrombosis; cited from earlier work
P-glycoprotein (P-gp) = conditions: preclinical results; ref unpublished data; cited from earlier work
[6] = co-administration of itraconazole

For `COc1ccc([C@@H]2Sc3ccccc3N(CCN(C)C)C(=O)[C@@H]2OC(C)=O)cc1` [Diltiazem], the absolute oral bioavailability [1] is listed as “about 40%”.
In the case of `CCC(C)n1ncn(-c2ccc(N3CCN(c4ccc(OCC5COC(Cn6cncn6)(c6ccc(Cl)cc6Cl)O5)cc4)CC3)cc2)c1=O` (stereo not shown) [Itraconazole], the “increase in the AUC of sensitive substrates” value (CYP3A4/5 [2]) is given as at least 10 fold and the “increase in the AUC of digoxin” value (P-gp) is given as over 1.25 fold.
In the case of `C[C@@H]1CCC[C@H](n2cnc(-c3cc(Cl)ccc3-n3cc(Cl)nn3)cc2=O)c2cc(ccn2)-c2c(cnn2C(F)F)NC1=O` [Milvexian], the “AUC(0–T) higher compared with milvexian alone” value ([3]; co-administration of diltiazem) is reported as 38%, the “AUC(INF) higher compared with milvexian alone” value ([3]; co-administration of diltiazem) is reported as 38% and the “C24 higher compared with milvexian alone” value ([3]; co-administration of diltiazem) is reported as 64%. The “mean Cmax higher compared with milvexian alone” value ([3]; co-administration of diltiazem) was 9.6%, the “mean T1/2 longer compared with milvexian alone” value ([3]; co-administration of diltiazem) was about 1.1 fold and the “AUC(0–T) higher compared with milvexian alone” value [3, 6] was 2.5 fold. For the same compound, the “AUC(INF) higher compared with milvexian alone” value [3, 6] was 2.5 fold, the “C24 higher compared with milvexian alone” value [3, 6] was 3.8 fold and the “mean T1/2 longer compared with milvexian alone” value [3, 6] was “approximately 1.5 fold”. The “effect of co-administration on median Tmax of milvexian” value ([3]; co-administration of itraconazole or diltiazem) was “not altered”, the “impact of a moderate CYP3A inhibitor on milvexian exposure” value ([3]; diltiazem co-administration) was “less than 2.5 fold” and the “impact of a strong CYP3A inhibitor on milvexian exposure” value ([3]; itraconazole co-administration) was under 5 fold. The “deaths or serious AEs during the study” value (Safety assessments) was “no deaths or serious AEs”, the “substrate of CYP3A4/5” value (CYP3A4/5 [4]) was “substrate of CYP3A4/5” and the antithrombotic activity [5] was “demonstrated antithrombotic activity while preserving homeostasis”. The “substrate for P-glycoprotein” value (P-glycoprotein (P-gp)) was “substrate for P-glycoprotein”.
